The source of these data is US11524968B2, “Heterocyclic compound as a protein kinase inhibitor” (HK inno.N Corporation, priority 2017, dated 2022).

SMILES strings stand for the structures. Where two headings read alike, the source gives them in different places. Some results are limits rather than exact numbers.

As usually defined, the IC50 is the concentration needed to halve the response being measured.

For this assay, the target named is JAK1 (Homo sapiens (Human), UniProt P23458). The assay can be described thus: Analysis of JAK1 activity inhibition ability (ADP-Glo Kinase Assay). It counts as biochemical. In short, it runs like this:
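JAK1 enzyme, IRS-itide substrate (40 ng/mL) and 250 uM ATP, both as prepared in kinase buffer (Tris-HCl pH 7.5, MgCl2, BSA, DTT), reacted with compound 40 min at 30 °C. ADP formed was detected by ADP-Glo luminescence; IC50 is the concentration giving 50% inhibition versus control.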

The mark [1] stands for this setting: JAK1 enzyme, ADP-Glo luminescence, ATP 250 uM, IRS-itide substrate, 30° C. 40 minutes, read-out: IC50.

JAK1, sequence (P23458 whole entry): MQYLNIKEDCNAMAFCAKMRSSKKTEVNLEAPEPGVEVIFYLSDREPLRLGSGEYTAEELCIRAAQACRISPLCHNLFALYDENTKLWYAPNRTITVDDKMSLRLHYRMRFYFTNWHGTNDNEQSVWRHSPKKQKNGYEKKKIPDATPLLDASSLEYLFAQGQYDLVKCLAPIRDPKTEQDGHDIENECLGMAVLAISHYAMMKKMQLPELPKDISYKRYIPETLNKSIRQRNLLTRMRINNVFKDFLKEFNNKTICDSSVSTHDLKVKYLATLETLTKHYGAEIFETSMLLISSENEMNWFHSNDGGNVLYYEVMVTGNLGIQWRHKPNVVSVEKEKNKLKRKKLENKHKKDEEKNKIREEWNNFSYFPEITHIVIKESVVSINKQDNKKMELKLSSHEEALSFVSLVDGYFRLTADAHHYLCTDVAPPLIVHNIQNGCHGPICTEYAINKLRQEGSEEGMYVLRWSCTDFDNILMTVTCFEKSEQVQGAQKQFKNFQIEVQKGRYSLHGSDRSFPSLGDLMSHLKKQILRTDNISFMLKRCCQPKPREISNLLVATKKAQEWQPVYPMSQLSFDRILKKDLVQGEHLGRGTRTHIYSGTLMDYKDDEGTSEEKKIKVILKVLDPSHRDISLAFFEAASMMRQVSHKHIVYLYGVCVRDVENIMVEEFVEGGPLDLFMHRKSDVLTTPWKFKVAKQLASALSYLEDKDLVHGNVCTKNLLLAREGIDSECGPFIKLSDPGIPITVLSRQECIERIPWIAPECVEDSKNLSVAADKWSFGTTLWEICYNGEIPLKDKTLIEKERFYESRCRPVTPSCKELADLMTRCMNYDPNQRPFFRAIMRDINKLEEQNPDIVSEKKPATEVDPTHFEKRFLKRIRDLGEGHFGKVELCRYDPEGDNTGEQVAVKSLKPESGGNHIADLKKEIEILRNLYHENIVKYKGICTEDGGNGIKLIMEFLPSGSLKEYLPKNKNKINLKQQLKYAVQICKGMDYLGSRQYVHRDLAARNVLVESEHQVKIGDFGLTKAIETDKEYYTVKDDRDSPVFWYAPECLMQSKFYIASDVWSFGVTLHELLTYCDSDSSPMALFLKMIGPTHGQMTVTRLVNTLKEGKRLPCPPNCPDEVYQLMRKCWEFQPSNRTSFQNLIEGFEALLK

On to `O=C(Cc1ccc(-c2cc(NC(=O)C3CC3)nc3[nH]ccc23)cc1)Nc1ccon1` [Example 544, N-(4-(4-(2-(isoxazol-3-ylamino)-2-oxoethyl)phenyl)-1H-pyrrolo[2,3-b]pyridin-6-yl)cyclopropanecarboxamide], for which, under setting [1], the IC50 is 20 to 200 nM.

`Cc1cc(CC(=O)N2CCS(=O)(=O)CC2)ccc1-c1cc(NC(=O)C2CC2)nc2[nH]ccc12` [Example 545, N-(4-(4-(2-(1,1-dioxidothiomorpholino)-2-oxoethyl)-2-methylphenyl)-1H-pyrrolo[2,3-b]pyridin-6-yl)cyclopropanecarboxamide]: under setting [1], the IC50 lay within 20 to 200 nM.

In the case of `O=C(Nc1cc(-c2ccc(CC(=O)N3CCC3)cc2)c2cc[nH]c2n1)C1CC1` [Example 546, N-(4-(4-(2-(azetidin-1-yl)-2-oxoethyl)phenyl)-1H-pyrrolo[2,3-b]pyridin-6-yl)cyclopropanecarboxamide], the 50% inhibitory concentration (IC50) under setting [1] was in the range of 20 to 200 nM.

Turning to `O=C(Nc1cc(-c2ccc(CC(=O)N3CCCC3)cc2)c2cc[nH]c2n1)C1CC1` [Example 547, N-(4-(4-(2-oxo-2-(pyrrolidin-1-yl)ethyl)phenyl)-1H-pyrrolo[2,3-b]pyridin-6-yl)cyclopropanecarboxamide], the IC50 under setting [1] is 20 to 200 nM.

On to `N#CC1CCN(C(=O)Cc2ccc(-c3cc(NC(=O)C4CC4)nc4[nH]ccc34)cc2)CC1` [Example 548, N-(4-(4-(2-(4-cyanopiperidin-1-yl)-2-oxoethyl)phenyl)-1H-pyrrolo[2,3-b]pyridin-6-yl)cyclopropanecarboxamide], for which the IC50 under setting [1] is 20 to 200 nM.

In the case of `O=C1CCN(C(=O)Cc2ccc(-c3cc(NC(=O)C4CC4)nc4[nH]ccc34)cc2)CC1` [Example 549, N-(4-(4-(2-oxo-2-(4-oxopiperidin-1-yl)ethyl)phenyl)-1H-pyrrolo[2,3-b]pyridin-6-yl)cyclopropanecarboxamide], the IC50 fell in the range of 20 to 200 nM.

For the compound `CN1CCN(C(=O)Cc2ccc(-c3cc(NC(=O)C4CC4)nc4[nH]ccc34)cc2)CC1` [Example 550, N-(4-(4-(2-(4-methylpiperazin-1-yl)-2-oxoethyl)phenyl)-1H-pyrrolo[2,3-b]pyridin-6-yl)cyclopropanecarboxamide], the IC50 under setting [1] fell in the range of 20 to 200 nM.

For the compound `CCN1CCN(C(=O)Cc2ccc(-c3cc(NC(=O)C4CC4)nc4[nH]ccc34)cc2)CC1` [Example 551, N-(4-(4-(2-(4-ethylpiperazin-1-yl)-2-oxoethyl)phenyl)-1H-pyrrolo[2,3-b]pyridin-6-yl)cyclopropanecarboxamide], the IC50 under setting [1] is more than 200 nM.

For the compound `CC(C)N1CCN(C(=O)Cc2ccc(-c3cc(NC(=O)C4CC4)nc4[nH]ccc34)cc2)CC1` [Example 552, N-(4-(4-(2-(4-isopropylpiperazin-1-yl)-2-oxoethyl)phenyl)-1H-pyrrolo[2,3-b]pyridin-6-yl)cyclopropanecarboxamide], the IC50 under setting [1] is more than 200 nM.

As for `N#CCCNC(=O)Cc1ccc(-c2cc(NC(=O)C3CC3)nc3[nH]ccc23)cc1` [Example 553, N-(4-(4-(2-((2-cyanoethyl)amino)-2-oxoethyl)phenyl)-1H-pyrrolo[2,3-b]pyridin-6-yl)cyclopropanecarboxamide], under setting [1], the IC50 was in the range of 20 to 200 nM.

Turning to `CC(C)(C)OC(=O)N1CCN(C(=O)Cc2ccc(-c3cc(NC(=O)C4CC4)nc4[nH]ccc34)cc2)CC1` [Example 554, tert-butyl 4-(2-(4-(6-(cyclopropanecarboxamido)-1H-pyrrolo[2,3-b]pyridin-4-yl)phenyl)acetyl)piperazine-1-carboxylate], the IC50 under setting [1] lay within 20 to 200 nM.

As to `CC(C)(C)OC(=O)N1CCCC(NC(=O)Cc2ccc(-c3cc(NC(=O)C4CC4)nc4[nH]ccc34)cc2)C1` (stereo not shown) [Example 555, tert-butyl 3-(2-(4-(6-(cyclopropanecarboxamido)-1H-pyrrolo[2,3-b]pyridin-4-yl)phenyl)acetamido)piperidine-1-carboxylate], the IC50 under setting [1] was more than 200 nM.

Consider `Cn1ccc(NC(=O)Cc2ccc(-c3cc(NC(=O)C4CC4)nc4[nH]ccc34)cc2)n1` [Example 556, N-(4-(4-(2-((1-methyl-1H-pyrazol-3-yl)amino)-2-oxoethyl)phenyl)-1H-pyrrolo[2,3-b]pyridin-6-yl)cyclopropanecarboxamide], for which, under setting [1], the IC50 lay within 20 to 200 nM.

Consider `O=C(Nc1cc(-c2ccc(CC(=O)N3CCCCC3)cc2)c2cc[nH]c2n1)C1CC1` [Example 557, N-(4-(4-(2-oxo-2-(piperidin-1-yl)ethyl)phenyl)-1H-pyrrolo[2,3-b]pyridin-6-yl)cyclopropanecarboxamide], for which the IC50 under setting [1] fell in the range of 20 to 200 nM.

Take `O=C(Nc1cc(-c2ccc(CC(=O)N3CCNCC3)cc2)c2cc[nH]c2n1)C1CC1` [Example 558, N-(4-(4-(2-oxo-2-(piperazin-1-yl)ethyl)phenyl)-1H-pyrrolo[2,3-b]pyridin-6-yl)cyclopropanecarboxamide]: under setting [1], the IC50 is more than 200 nM.

With `O=C(Nc1cc(-c2ccc(CC(=O)N3CCS(=O)(=O)CC3)c(F)c2)c2cc[nH]c2n1)C1CC1` [Example 559, N-(4-(4-(2-(1,1-dioxidothiomorpholino)-2-oxoethyl)-3-fluorophenyl)-1H-pyrrolo[2,3-b]pyridin-6-yl)cyclopropanecarboxamide], the IC50 under setting [1] fell in the range of 20 to 200 nM.

As for `O=C(Nc1cc(-c2ccc(CC(=O)N3CCSCC3)cc2)c2cc[nH]c2n1)C1CC1` [Example 560, N-(4-(4-(2-oxo-2-thiomorpholinoethyl)phenyl)-1H-pyrrolo[2,3-b]pyridin-6-yl)cyclopropanecarboxamide], under setting [1], the IC50 lay within 20 to 200 nM.

For the compound `O=C(Nc1cc(-c2ccc(CC(=O)N3CCC(F)(F)CC3)cc2)c2cc[nH]c2n1)C1CC1` [Example 561, N-(4-(4-(2-(4,4-difluoropiperidin-1-yl)-2-oxoethyl)phenyl)-1H-pyrrolo[2,3-b]pyridin-6-yl)cyclopropanecarboxamide], under setting [1], the IC50 lay in the range of 20 to 200 nM.

Turning to `CCS(=O)(=O)N1CCN(C(=O)Cc2ccc(-c3cc(NC(=O)C4CC4)nc4[nH]ccc34)cc2)CC1` [Example 563, N-(4-(4-(2-(4-(ethylsulfonyl)piperazin-1-yl)-2-oxoethyl)phenyl)-1H-pyrrolo[2,3-b]pyridin-6-yl)cyclopropanecarboxamide], the IC50 under setting [1] lay in the range of 20 to 200 nM.

Regarding `CCCS(=O)(=O)N1CCN(C(=O)Cc2ccc(-c3cc(NC(=O)C4CC4)nc4[nH]ccc34)cc2)CC1` [Example 564, N-(4-(4-(2-oxo-2-(4-(propylsulfonyl)piperazin-1-yl)ethyl)phenyl)-1H-pyrrolo[2,3-b]pyridin-6-yl)cyclopropanecarboxamide], under setting [1], the IC50 fell in the range of 20 to 200 nM.

In the case of `CCOC(=O)N1CCN(C(=O)Cc2ccc(-c3cc(NC(=O)C4CC4)nc4[nH]ccc34)cc2)CC1` [Example 565, ethyl 4-(2-(4-(6-(cyclopropanecarboxamido)-1H-pyrrolo[2,3-b]pyridin-4-yl)phenyl)acetyl)piperazine-1-carboxylate], under setting [1], the 50% inhibitory concentration (IC50) lay within 20 to 200 nM.

In the case of `O=C(Nc1cc(-c2ccc(CC(=O)N3CCN(S(=O)(=O)NCC(F)(F)F)CC3)cc2)c2cc[nH]c2n1)C1CC1` [Example 566, (N-(4-(4-(2-oxo-2-(4-(N-(2,2,2-trifluoroethyl)sulfamoyl)piperazin-1-yl)ethyl)phenyl)-1H-pyrrolo[2,3-b]pyridin-6-yl)cyclopropanecarboxamide)], the IC50 under setting [1] is more than 200 nM.

Turning to `N#CC1CCN(C(=O)Cc2ccc(-c3cc(NC(=O)C4CC4)nc4[nH]ccc34)cc2)C1` (stereo not shown) [Example 567, N-(4-(4-(2-(3-cyanopyrrolidin-1-yl)-2-oxoethyl)phenyl)-1H-pyrrolo[2,3-b]pyridin-6-yl)cyclopropanecarboxamide], the IC50 under setting [1] was in the range of 20 to 200 nM.

`N#CC1CN(C(=O)Cc2ccc(-c3cc(NC(=O)C4CC4)nc4[nH]ccc34)cc2)C1` [Example 568, N-(4-(4-(2-(3-cyanoazetidin-1-yl)-2-oxoethyl)phenyl)-1H-pyrrolo[2,3-b]pyridin-6-yl)cyclopropanecarboxamide]: the IC50 under setting [1] lay in the range of 20 to 200 nM.

`O=C(Nc1cc(-c2ccc(CC(=O)N3CCC(F)(F)C3)cc2)c2cc[nH]c2n1)C1CC1` [Example 569, N-(4-(4-(2-(3,3-difluoropyrrolidin-1-yl)-2-oxoethyl)phenyl)-1H-pyrrolo[2,3-b]pyridin-6-yl)cyclopropanecarboxamide]: the IC50 under setting [1] was less than 20 nM.

For `O=C(Nc1cc(-c2ccc(CC(=O)N3CCC(C(F)(F)F)CC3)cc2)c2cc[nH]c2n1)C1CC1` [Example 570, N-(4-(4-(2-oxo-2-(4-(trifluoromethyl)piperidin-1-yl)ethyl)phenyl)-1H-pyrrolo[2,3-b]pyridin-6-yl)cyclopropanecarboxamide], the IC50 under setting [1] is 20 to 200 nM.

On to `O=C(Nc1cc(-c2ccc(C(F)(F)C(=O)N3CCS(=O)(=O)CC3)cc2)c2cc[nH]c2n1)C1CC1` [Example 571, N-(4-(4-(2-(1,1-dioxidothiomorpholino)-1,1-difluoro-2-oxoethyl)phenyl)-1H-pyrrolo[2,3-b]pyridin-6-yl)cyclopropanecarboxamide], for which, under setting [1], the IC50 fell in the range of 20 to 200 nM.

On to `O=C(Nc1cc(-c2ccc(C(F)(F)C(=O)N3CCOCC3)cc2)c2cc[nH]c2n1)C1CC1` [Example 572, N-(4-(4-(1,1-difluoro-2-morpholino-2-oxoethyl)phenyl)-1H-pyrrolo[2,3-b]pyridin-6-yl)cyclopropanecarboxamide], for which the IC50 under setting [1] is 20 to 200 nM.

For the compound `CN(CC#N)C(=O)Cc1ccc(-c2cc(NC(=O)C3CC3)nc3[nH]ccc23)cc1` [Example 573, N-(4-(4-(2-((cyanomethyl)(methyl)amino)-2-oxoethyl)phenyl)-1H-pyrrolo[2,3-b]pyridin-6-yl)cyclopropanecarboxamide], under setting [1], the IC50 was 20 to 200 nM.

Take `O=C(Nc1cc(-c2ccc(CC(=O)N3CC[S+]([O-])CC3)cc2)c2cc[nH]c2n1)C1CC1` [Example 574, N-(4-(4-(2-(1-oxidothiomorpholino)-2-oxoethyl)phenyl)-1H-pyrrolo[2,3-b]pyridin-6-yl)cyclopropanecarboxamide]: under setting [1], the IC50 was 20 to 200 nM.

As to `N#CC1CCN(C(=O)C(F)(F)c2ccc(-c3cc(NC(=O)C4CC4)nc4[nH]ccc34)cc2)CC1` [Example 575, N-(4-(4-(2-(4-cyanopiperidin-1-yl)-1,1-difluoro-2-oxoethyl)phenyl)-1H-pyrrolo[2,3-b]pyridin-6-yl)cyclopropanecarboxamide], under setting [1], the IC50 lay in the range of 20 to 200 nM.
